According to patent US5968791A, “Plant lysophosphatidic acid acyltransferases” (Calgene, Inc., priority 1995, dated 1999):

Assays:
[1] = test system: Rapeseed LPAAT; experiment: LPAAT activity assay, rapeseed P2 membrane preparation; assay type: biochemical, Brassica napus; settings: acyl-CoA donor varied, acceptor 12:0-LPA
Experimental: (§1) To assay for LPAAT activity, the sample is incubated with lysophosphatidic acid (LPA) and acyl-coenzyme A (acyl-CoA) substrates in buffered solution. The acyl substituents of the two substrates are chosen to correspond with the specificity of the enzyme being measured. For example, to measure activity of an LPAAT having preference for medium-chain substrates, lauroyl-LPA (lauroyl-lysophosphatidic acid) and lauroyl-CoA may be used, to measure activity of an LPAAT preferring longer-chain acyl groups, oleoyl-LPA and oleoyl-CoA may be used, to measure activity of an LPAAT preferring very-long chain substrate, erucyl-LPA and erucyl-CoA may be used, and so on, depending upon the type of LPAAT to be tested. The acyl group of one substrate is radioactively labeled in order to detect the product formed. In the examples which follow the acyl substituent of the acyl-CoA substrate is radiolabeled with ^14 C in the carboxyl group. LPAAT activity results in transfer of this acyl group from the acyl-CoA "donor" substrate to the LPA "acceptor" substrate, converting the latter into the product, phosphatidic acid (PA). LPAAT activity is measured as the amount of radioactive product formed in a given assay time. The PA product is radioactive as a result of the transferred radiolabeled acyl group at the central carbon atom of the molecule, and the quantity of PA formed may be determined by measuring radioactivity of the PA fraction. For this measurement, the PA is first separated from the acyl-CoA substrate by solvent partitioning, or by thin-layer chromatography (TLC).
(§2) 20 μl of the sample to be assayed for LPAAT activity is mixed with 217.5 μl of an assay ingredient mixture in a 4-ml, screw-cap vial. […] The incubation takes place in a water bath at 30° C., for 20-30 minutes.
(§3) To stop the assay, 0.25 ml of 1M KCl in 0.2M H3 PO4 is added to the vial. At this point, 40 μl BSA (bovine serum albumin, fraction V) at 1 mg/ml are added, followed by 0.75 ml of a solution of 67 μg/ml unlabeled PA (acting as a "carrier" to facilitate partitioning) in chloroform/methanol (2:1, v/v). The chain lengths of the PA acyl groups are chosen to correspond to those used in the assay substrates. Upon thorough mixing of these components the radiolabeled PA product of the LPAAT reaction partitions into the organic phase and away from the unreacted acyl-CoA and LPA. The vial is centrifuged briefly at low speed to facilitate the separation of organic (lower) and aqueous (upper) phases. The aqueous phase is then removed and discarded. The total radioactivity extracted into the organic phase is determined by liquid scintillation counting; a 100 μl sample of the organic phase is transferred to a 20 ml scintillation vial and allowed to dry, and scintillation fluid (3-5 ml) is added to the vial. The radioactivity of the sample, after subtraction of the "minus-enzyme" or "minus-LPA" radioactivities, is taken as an approximate indication of the amount of PA formed in the LPAAT-catalyzed reaction and therefore of LPAAT activity.
A more accurate estimation of the LPAAT activity may be obtained by separating the PA product from these contaminants by TLC. The remaining organic phase is applied to a silica TLC plate. […] After the plate has dried, the distribution of radioactivity is visualized and quantitated using an AMBIS radioanalytic imaging system (AMBIS Systems Inc., San Diego, Calif.). From prior application of standard lipid components the Rf of the PA is known. The radioactivity associated with the PA spot is expressed as a percentage of the total radioactivity of the assay sample loaded on the plate. This ratio provides an indication of the proportion of the scintillation counts which represent the PA product, and may be used to correct the counts to obtain the total PA radioactivity formed in the assay.
A P2 membrane homogenate from immature embryos of developing rapeseed (Brassica napus) seeds is prepared essentially as described above, except as noted below.

[2] = target: T1, LPAAT of transformant 5511-5 (Cocos nucifera, UniProt Q42670); experiment: LPAAT acyl-CoA specificity, P2 preparation of LPAAT-transformed line 5511-5; assay type: biochemical, Rapeseed; settings: acyl-CoA donor varied at 5 μM, acceptor 12:0-LPA; 30 minute reaction
T1 construct: crude P2 membranes, host LPAAT also present
T1 sequence (Q42670 1-308): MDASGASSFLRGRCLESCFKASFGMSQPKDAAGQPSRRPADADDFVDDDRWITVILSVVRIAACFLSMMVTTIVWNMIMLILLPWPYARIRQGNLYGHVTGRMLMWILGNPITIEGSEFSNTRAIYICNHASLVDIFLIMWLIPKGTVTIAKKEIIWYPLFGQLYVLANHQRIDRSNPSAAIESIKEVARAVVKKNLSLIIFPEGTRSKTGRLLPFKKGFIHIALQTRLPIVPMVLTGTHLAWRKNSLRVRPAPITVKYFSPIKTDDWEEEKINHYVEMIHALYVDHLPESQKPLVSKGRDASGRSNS
Experimental: (§4) Detailed acyl-CoA chain-length specificity analysis of control P2 preparations and LPAAT-transformed line 5511-5 were determined as described above, using the original 30 minute reaction time. The acyl-CoA substrates for this analysis are present in methanol, and thus the assay also had the following modifications. The first solution placed in the assay vial was the volume of each radiolabeled acyl-CoA required for 5 μM final assay concentration. […] After mixing to redissolve the acyl-CoA off the vial wall, the reaction is started by addition of 25 μl of a 5-fold diluted P2 preparation and continued as before. Acyl-CoA substrates used in this analysis were 8:0, 10:0, 12:0, 14:0, 16:0, 18:0, and 18:1. The acceptor substrate in these assays was 12:0-LPA.

[3] = test system: control rapeseed LPAAT; experiment: LPAAT acyl-CoA specificity, control P2 preparation; assay type: biochemical; settings: acyl-CoA donor varied at 5 μM, acceptor 12:0-LPA; 30 minute reaction
Experimental: as §4

[4] = target: T2, coconut LPAAT (Cocos nucifera, UniProt Q42670); experiment: LPAAT activity assay, coconut P2 membrane preparation; assay type: biochemical; parameters: white endosperm tissue lining the inside of the endocarp can be dissected and collected; from tissue; host or cells: immature coconut endosperm, P2 membrane fraction; settings: P2 membrane preparation; acyl-CoA donor varied, acceptor 12:0-LPA
T2 sequence (Q42670 1-308): T1 sequence (Q42670 1-308)
Experimental: as §1, §2, §3
A more accurate estimation of the LPAAT activity may be obtained by separating the PA product from these contaminants by TLC. The remaining organic phase is applied to a silica TLC plate. Ascending chromatography is carried out for 50 minutes, using the solvent mixture chloroform/pyridine/88% formic acid (50:30:7, v/v). After the plate has dried, the distribution of radioactivity is visualized and quantitated using an AMBIS radioanalytic imaging system (AMBIS Systems Inc., San Diego, Calif.). From prior application of standard lipid components the Rf of the PA is known. The radioactivity associated with the PA spot is expressed as a percentage of the total radioactivity of the assay sample loaded on the plate. This ratio provides an indication of the proportion of the scintillation counts which represent the PA product, and may be used to correct the counts to obtain the total PA radioactivity formed in the assay. […]

Compound	Cpm PA Product, 5511-5 [2] [Cpm]	LPAAT Activity from Coconut [4]	LPAAT Activity from Rapeseed [1]	Cpm PA Product, Control [3] [Cpm]
CCCCCCCCCC(=O)SCCNC(=O)CCNC(=O)[C@H](O)C(C)(C)COP(=O)(O)OP(=O)(O)OC[C@H]1O[C@@H](n2cnc3c(N)ncnc32)[C@H](O)[C@@H]1OP(=O)(O)O [10:0]	5648	43 pmol PA formed/30 min assay	12 pmol PA formed/30 min assay	831
CCCCCCCC/C=C\CCCCCCCC(=O)SCCNC(=O)CCNC(=O)[C@H](O)C(C)(C)COP(=O)(O)OP(=O)(O)OC[C@H]1O[C@@H](n2cnc3c(N)ncnc32)[C@H](O)[C@@H]1OP(=O)(O)O [18:1, oleoyl-CoA]	8430	9 pmol PA formed/30 min assay	218 pmol PA formed/30 min assay	7946
CCCCCCCC(=O)SCCNC(=O)CCNC(=O)[C@H](O)C(C)(C)COP(=O)(O)OP(=O)(O)OC[C@H]1O[C@@H](n2cnc3c(N)ncnc32)[C@H](O)[C@@H]1OP(=O)(O)O [8:0]	454	6 pmol PA formed/30 min assay	2 pmol PA formed/30 min assay	149
CCCCCCCCCCCCCC(=O)SCCNC(=O)CCNC(=O)[C@H](O)C(C)(C)COP(=O)(O)OP(=O)(O)OC[C@H]1O[C@@H](n2cnc3c(N)ncnc32)[C@H](O)[C@@H]1OP(=O)(O)O [14:0]	5080	61 pmol PA formed/30 min assay	16 pmol PA formed/30 min assay	1544

Now from value to compound, other results behind:

Cpm PA Product, 5511-5 [2] [Cpm]	LPAAT Activity from Coconut [4]	Compound	LPAAT Activity from Rapeseed [1]	Cpm PA Product, Control [3] [Cpm]
4569	21 pmol PA formed/30 min assay	CCCCCCCCCCCCCCCC(=O)SCCNC(=O)CCNC(=O)[C@H](O)C(C)(C)COP(=O)(O)OP(=O)(O)OC[C@H]1O[C@@H](n2cnc3c(N)ncnc32)[C@H](O)[C@@H]1OP(=O)(O)O [16:0]	27 pmol PA formed/30 min assay	3034
9337	238 pmol PA formed/30 min assay	CCCCCCCCCCCC(=O)SCCNC(=O)CCNC(=O)[C@H](O)C(C)(C)COP(=O)(O)OP(=O)(O)OC[C@H]1O[C@@H](n2cnc3c(N)ncnc32)[C@H](O)[C@@H]1OP(=O)(O)O [12:0, lauroyl-CoA]	79 pmol PA formed/30 min assay	1758
